Results taken from publication PMC10587737, “Dracorhodin targeting CMPK2 attenuates inflammation: A novel approach to sepsis therapy” (Clinical and Translational Medicine, 2023).

How the values were obtained:
[1] = molecular target: CMPK2 mutant at K282; test: ADP-GLO kinase activity of CMPK2 K282 mutant; type: biochemical, human
Procedure: Human CMPK2 and K265, K282 and K320 mutated CMPK2 cDNA were cloned and inserted into the pTT5 vector, and the constructed plasmid was amplified by the DH5α strain. The C‐terminus of the cDNA was fused with a 6× His tag, and the N‐terminus was truncated by 22 amino acids (Figure 1B–F and Supporting Information Figure S5A,B). When the free‐style 293‐F cells reached the proper density, approximately 1 mg of expression plasmid was premixed with 3 mg polyethylenimine in UltraFectin medium and incubated prior to transfection. This mixture was then added to the appropriate amount of fresh cell culture medium, incubated for 30 min and collected after 48 h.
CMPK2 activity was measured by the ADP‐GLO kinase assay according to the guidelines specified in the manufacturer's instructions. In the activity assay, the amount of ADP formed in the CMPK2 reaction was equal to the ATP consumption and proportional to the increase in luminescence generated in the luciferase reaction, which is the experimental principle shown in Figure 1I.

[2] = molecular target: T1, CMPK2 (Homo sapiens, UniProt Q5EBM0); test: CMPK2 kinase activity assay (ADP-GLO); type: biochemical
T1 sequence (Q5EBM0 22-449): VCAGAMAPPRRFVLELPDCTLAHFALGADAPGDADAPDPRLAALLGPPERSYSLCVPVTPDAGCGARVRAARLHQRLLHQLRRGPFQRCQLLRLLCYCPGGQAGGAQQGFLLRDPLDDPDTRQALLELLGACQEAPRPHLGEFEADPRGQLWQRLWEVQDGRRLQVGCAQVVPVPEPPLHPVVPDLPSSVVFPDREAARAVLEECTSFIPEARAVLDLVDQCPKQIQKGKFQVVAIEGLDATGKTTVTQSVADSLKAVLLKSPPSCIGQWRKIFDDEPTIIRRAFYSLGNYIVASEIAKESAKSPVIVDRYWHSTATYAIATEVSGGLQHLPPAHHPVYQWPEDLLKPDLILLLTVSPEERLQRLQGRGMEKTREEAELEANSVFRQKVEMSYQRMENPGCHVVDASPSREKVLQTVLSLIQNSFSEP

[3] = molecular target: T2, CMPK2 lysine residues (Homo sapiens, UniProt Q5EBM0); test: Quantitative lysine reactivity profiling (dimethyl labelling)
T2 construct: the N‐terminus was truncated by 22 amino acids; 6xHis (C); made in house; host or cells: FreeStyle 293-F cells (pTT5 vector)
T2 sequence (Q5EBM0 22-449): T1 sequence (Q5EBM0 22-449)
Procedure: The extent of DP intervention on lysine residues of CMPK2 conformational changes was visualized and the correlation between this effect and the inhibitory potency of the inhibitor was assessed. […] Finally, after the concentration of the active small molecule was fixed, the concentration of the target protein CMPK2 was tested for lysine labelling reactivity according to a gradient of 0.025, 0.05 and 0.1 mg/mL. The range of concentrations used to investigate the effect of small‐molecule ligands on CMPK2 activity was 0.1–150 μM. Each data point contains three biological replicates.
Stable isotope labeling reactions were performed in the active state of the target protein samples. In short, the sample was split into two identical portions. One portion was incubated with DP, and the other was incubated with DMSO vehicle for 30 min at 37℃. Then, mass-differentiated isotopic labeling was performed with heavy (30 mM CD2O, 5 mM NaBH3CN) and light (30 mM CH2O, 5 mM NaBH3CN) labeling reagents. Active isotopic labeling was allowed to proceed for the indicated time, and this experiment allowed incubation for 15 min at 25℃ in the dark. Add 5 M NH4AC and react for 10 min at room temperature to stop the labeling reaction. […] The digested peptide samples were collected by centrifugation, lyophilized, and stored at -80℃ for quantitative proteomic analysis.

[4] = system: cellular CMPK2 activity in BMDMs; test: Effect on cellular CMPK2 activity (ADP-Glo on cell lysates); type: cell-based, mouse
Procedure: Primary BMDMs were generated by culturing mouse bone marrow cells in the presence of 20 ng/ml M-CSF conditioned medium for 7 days. BMDMs were seeded in 6-well plates overnight in FBS-free DMEM. After adhering to the wall, different concentrations of DP were added and treated for 12 hours. On day 2, after priming with ultrapure LPS (200 ng/ml) for 4 h, BMDMs (1 × 10^6 cells/ml) were further stimulated with ATP (4 mM) or Nigericin (10 μM) for 45 min. Cell lysates were collected for ADP-Glo™ Kinase Assay (Promega, Madison, WI, USA).

[5] = molecular target: T3, purified CMPK2 protein (WT) (Homo sapiens, UniProt Q5EBM0); test: Microscale thermophoresis (MST) binding to CMPK2
T3 construct: the N‐terminus was truncated by 22 amino acids; 6xHis (C); made in house; host or cells: FreeStyle 293-F cells (pTT5 vector)
T3 sequence (Q5EBM0 22-449): T1 sequence (Q5EBM0 22-449)
Procedure: The MST assay is an emerging technique used to quantitatively elucidate binding. The binding parameter between CMPK2 and DP was measured using MST on a Monolith NT.115 system (Germany). CMPK2 was fluorescently labeled with the Monolith NT Protein Labeling Kit RED (L018, NanoTemper Technologies GmbH, Munich, Germany) according to the manufacturer's instructions. The Monolith NT.115 system was used with Monolith NT.115 standard capillaries (M0-[…]). MST assay buffer was used to dilute the labeled CMPK2 to 2 μM. Sixteen dilutions (1:1) of the ligand were prepared using the same buffer, starting at a concentration of 10 μM. An equivalent volume of the labeled CMPK2 was added to each of the dilutions and loaded into Monolith NT.115 standard treated capillaries (Nano Temper Technologies), which were used to measure the MST trace at a temperature of 27°C. The experimental parameters were adjusted to medium MST power and 40% LED/excitation power. The binding and dissociation constants (Kd) were evaluated and calculated using M0-Affinity analysis software version 2.1.3 (Nano Temper Technologies) for the ligand.

[6] = system: CMPK2 expression in BMDMs; test: CMPK2 protein and mRNA expression in BMDMs; type: cell-based, mouse
Procedure: Cells were lysed in NP-40 buffer containing a protease inhibitor cocktail (Roche, 11836153001) and a phosphatase inhibitor cocktail (Sigma-Aldrich, P5726). Protein concentrations were quantified using a BCA Protein Assay Kit (Beyotime, 5000T P0011). Equal amounts of protein were separated by SDS-PAGE and transferred onto nitrocellulose membranes. The membranes were then incubated with antibodies against CMPK2, NLRP3, ASC, pro-caspase-1, pro-IL-1β, GAPDH, caspase-1 and IL-1β, followed by incubation with the appropriate secondary HRP-conjugated antibodies and development with ECL.

SMILES: COc1c2ccc(-c3ccccc3)oc-2cc(=O)c1C [compound 73, Dracohodin perochlorate]
- kinase activity of the mutant at K282 [1]: slight inhibitory effect
- CMPK2 activity ([2]; 1 mM DP): completely inhibited
- IC50 ([2]; kinase activity assay, experimental triplicates, read-out: IC50 with respect to CMPK2): 1340 nM
- inhibition at 10 µM ([2]; read-out: CMPK2 inhibition): > 50%
- isotope-labelling ratios of lysine residues ([3]; residues K245, K249, K282, K320, K324, K293, K265, K251, K277 and K368): lower than 0.5
- isotope-labelling ratios of lysine residues ([3]; residues K393, K433 and K409, DP–CMPK2 co-incubation): approximately 1
- cellular CMPK2 inhibition ([4]; DP 10 μM): enhanced significantly
- cellular CMPK2 enzyme activity ([4]; DP 2.5 and 5 μM): tendency to inhibit
- Kd [5]: 350 ± 34.9 nM
- mRNA expression level of Cmpk2 [6]: decreased
- protein expression of CMPK2 ([6]; DP 2.5, 5, 10 μM): dose‐dependently inhibited
